In assay [1] the test system is Vpu-mediated GFP-CD4 degradation. Briefly: Vpu-mediated CD4 degradation assay (GFP-CD4, tet-off Vpu). To be noted: 293 cells, pretreatment of transfected cells, Western blotting (FIG. 7C). The class given is cell-based, human. How it is done:
The inducible system consists of the tetracycline (Tc)-responsive promoter system developed by Gossen and Bujard (1992). Vpu and GFP-CD4 expression were performed in either HeLa Tet-off gene expression system (CLONTECH). These stably transfected HeLa cells carry the pTet-Off regulator plasmid encoding a tetracycline-controlled transactivator (tTA), which also includes a neomycin-resistance gene. Alternatively 293 cells were transfected with the inducible constructs and the pTet-Off plasmid (Lavon et al., 2000). […]
The ubiquitin-ligase activity is measured as a function of Vpu-mediated GFP-CD4 degradation (FIG. 7A). […] The N-terminal CD4 sequence, including the first three Ig-like domains (but preserving the CD4 signal sequence), was replaced with the human EGFP sequence for allowing the quantitative measurement of the fusion protein through the GFP fluorescence signal.
A GFP-CD4 expression plasmid was co-transfected into 293 cells together with expression plasmids for doxycycline (DOX)-regulated HIV-Vpu and tTA (tetracycline transactivator) plasmid. Vpu and GFP-CD4 expression were detected by Western blotting. […]
In general terms: Immunoblotting shows a protein as a band on a membrane.

Assay [2] addresses T1, E3RS-hnRNP-U complex (Homo sapiens, UniProt Q9Y297).
T1 construct: expressed in transfected cells; host or cells: 293T cells
T1 sequence (Q9Y297 1-605): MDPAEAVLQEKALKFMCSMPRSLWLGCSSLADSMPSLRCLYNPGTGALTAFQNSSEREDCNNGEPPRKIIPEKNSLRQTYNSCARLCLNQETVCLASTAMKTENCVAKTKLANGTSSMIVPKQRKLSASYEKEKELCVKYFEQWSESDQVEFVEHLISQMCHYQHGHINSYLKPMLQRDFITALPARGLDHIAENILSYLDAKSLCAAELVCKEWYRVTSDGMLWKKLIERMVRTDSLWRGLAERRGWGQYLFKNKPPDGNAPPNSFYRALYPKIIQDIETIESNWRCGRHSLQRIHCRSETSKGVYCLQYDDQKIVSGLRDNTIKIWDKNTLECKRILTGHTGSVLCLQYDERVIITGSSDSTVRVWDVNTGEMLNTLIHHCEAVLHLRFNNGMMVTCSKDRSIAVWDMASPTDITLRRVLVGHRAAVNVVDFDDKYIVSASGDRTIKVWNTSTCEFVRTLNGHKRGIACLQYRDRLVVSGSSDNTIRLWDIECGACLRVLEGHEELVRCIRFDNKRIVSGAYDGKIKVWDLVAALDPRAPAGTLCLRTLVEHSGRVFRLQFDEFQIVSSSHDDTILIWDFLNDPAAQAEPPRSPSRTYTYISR
Briefly: Dissociation of E3RS from immobilized hnRNP-U by IκBα species. It counts as binding. The settings on record: anti-hnRNP-U immunobeads from Flag-E3RS transfected 293T cells; Western blot (FIG. 4D). How it is done: Flag-E3RS and endogenous hnRNP-U from 293T cells were used as an E3 source and Flag-WD was used as a negative control. 100 μg protein extract was immunoprecipitated using 2 μl anti-Flag beads or 0.21 μl anti-hnRNP-U antibodies. IκB was phosphorylated by the constitutively-active IκB kinase (IKK2; (Mercurio et al., 1997)) and subjected to binding and ubiquitination assays with each of the above E3 sources, as described previously by (Yaron et al., 1998).
Next, 293T cells transfected with Flag-E3RS were immunoprecipitated using anti-Flag (lanes 1,2) or anti-hnRNP-U (FIG. 4D, lanes 3-7) antibodies. IκBα (FIG. 4D, lanes 1,3,4) and IKK phosphorylated IκBα (pIκBα; FIG. 4D, lanes 2,5-7) were incubated with the immunobeads, after which, both the immunobeads (slurry (S); FIG. 4D, lanes 1-3,5) and the post-slurry fractions (PS; FIG. 4D, lanes 4,6) were analyzed by Western blot directly, or after immunoprecipitation of the post-slurry fraction (same as in FIG. 4D, lane 6) with anti-Flag beads (FIG. 4D, lane 7).

Data on two molecules can be found in patent US6905836B2, “Methods for identifying compounds that inhibit ubiquitin-mediated proteolysis of iκb” (Yissum Research Development Company of the Hebrew …, priority 2000, dated 2005).

Residues, ends and D or L forms follow the SMILES beside them. *: point of attachment. Cbz = O=C(OCc1ccccc1)*

For `CC(C)C[C@@H](C=O)NC(=O)[C@H](CC(C)C)NC(=O)[C@H](CC(C)C)NC(=O)OCc1ccccc1` [MG132] (Cbz-Leu-Leu-Leu-aldehyde), the “GFP-CD4 signal upon Vpu expression” value in assay [1] is on record as “preservation of the GFP-CD4 signal”.

B1: pIκBα: IKK phosphorylated IκBα protein (protein)
chain: MFQAAERPQEWAMEGPRDGLKKERLLDDRHDSGLDSMKDEEYEQMVKELQEIRLEPQEVPRGSEPWKQQLTEDGDSFLHLAIIHEEKALTMEVIRQVKGDLAFLNFQNNLQQTPLHLAVITNQPEIAEALLGAGCDPELRDFRGNTPLHLACEQGCLASVGVLTQSCTTPHLHSILKATNYNGHTCLHLASIHGYLGIVELLVSLGADVNAQEPCNGRTALHLAVDLQNPDLVSLLLKCGADVNRVTYQGYSPYQLTWGRPSTRIQQQLGQLTLENLQMLPESEDEESYDTESEFTEFTEDELPYDDCVFGGQRLTL
With B1, the “dissociation of E3RS from immobilized hnRNP-U into the post-slurry fraction” value in assay [2] is listed as “induced the dissociation of the E3RS from the immobilized hnRNP-U”.
